Measurements published in patent publication US10077261B2, “Imidazolin-5-one derivative useful as FASN inhibitors for the treatment of cancer” (Janssen Pharmaceutica NV, priority 2012, dated 2018).

Key:
[1] = molecular target: T1, hFASN enzyme (full length) (Homo sapiens, UniProt P49327); experiment: Fatty Acid Synthase (FASN) inhibition scintillation proximity assay; format: biochemical; details: for inhibition at 10 µM: read-out: Human FASN % inhibition @ 10 μM, 10 μM test compound; for IC50: read-out: Human FASN pIC50 (converted)
T1 construct: 10 μL hFASN enzyme (full length, 300 ng, purified in house); made in house
T1 sequence (P49327 whole entry): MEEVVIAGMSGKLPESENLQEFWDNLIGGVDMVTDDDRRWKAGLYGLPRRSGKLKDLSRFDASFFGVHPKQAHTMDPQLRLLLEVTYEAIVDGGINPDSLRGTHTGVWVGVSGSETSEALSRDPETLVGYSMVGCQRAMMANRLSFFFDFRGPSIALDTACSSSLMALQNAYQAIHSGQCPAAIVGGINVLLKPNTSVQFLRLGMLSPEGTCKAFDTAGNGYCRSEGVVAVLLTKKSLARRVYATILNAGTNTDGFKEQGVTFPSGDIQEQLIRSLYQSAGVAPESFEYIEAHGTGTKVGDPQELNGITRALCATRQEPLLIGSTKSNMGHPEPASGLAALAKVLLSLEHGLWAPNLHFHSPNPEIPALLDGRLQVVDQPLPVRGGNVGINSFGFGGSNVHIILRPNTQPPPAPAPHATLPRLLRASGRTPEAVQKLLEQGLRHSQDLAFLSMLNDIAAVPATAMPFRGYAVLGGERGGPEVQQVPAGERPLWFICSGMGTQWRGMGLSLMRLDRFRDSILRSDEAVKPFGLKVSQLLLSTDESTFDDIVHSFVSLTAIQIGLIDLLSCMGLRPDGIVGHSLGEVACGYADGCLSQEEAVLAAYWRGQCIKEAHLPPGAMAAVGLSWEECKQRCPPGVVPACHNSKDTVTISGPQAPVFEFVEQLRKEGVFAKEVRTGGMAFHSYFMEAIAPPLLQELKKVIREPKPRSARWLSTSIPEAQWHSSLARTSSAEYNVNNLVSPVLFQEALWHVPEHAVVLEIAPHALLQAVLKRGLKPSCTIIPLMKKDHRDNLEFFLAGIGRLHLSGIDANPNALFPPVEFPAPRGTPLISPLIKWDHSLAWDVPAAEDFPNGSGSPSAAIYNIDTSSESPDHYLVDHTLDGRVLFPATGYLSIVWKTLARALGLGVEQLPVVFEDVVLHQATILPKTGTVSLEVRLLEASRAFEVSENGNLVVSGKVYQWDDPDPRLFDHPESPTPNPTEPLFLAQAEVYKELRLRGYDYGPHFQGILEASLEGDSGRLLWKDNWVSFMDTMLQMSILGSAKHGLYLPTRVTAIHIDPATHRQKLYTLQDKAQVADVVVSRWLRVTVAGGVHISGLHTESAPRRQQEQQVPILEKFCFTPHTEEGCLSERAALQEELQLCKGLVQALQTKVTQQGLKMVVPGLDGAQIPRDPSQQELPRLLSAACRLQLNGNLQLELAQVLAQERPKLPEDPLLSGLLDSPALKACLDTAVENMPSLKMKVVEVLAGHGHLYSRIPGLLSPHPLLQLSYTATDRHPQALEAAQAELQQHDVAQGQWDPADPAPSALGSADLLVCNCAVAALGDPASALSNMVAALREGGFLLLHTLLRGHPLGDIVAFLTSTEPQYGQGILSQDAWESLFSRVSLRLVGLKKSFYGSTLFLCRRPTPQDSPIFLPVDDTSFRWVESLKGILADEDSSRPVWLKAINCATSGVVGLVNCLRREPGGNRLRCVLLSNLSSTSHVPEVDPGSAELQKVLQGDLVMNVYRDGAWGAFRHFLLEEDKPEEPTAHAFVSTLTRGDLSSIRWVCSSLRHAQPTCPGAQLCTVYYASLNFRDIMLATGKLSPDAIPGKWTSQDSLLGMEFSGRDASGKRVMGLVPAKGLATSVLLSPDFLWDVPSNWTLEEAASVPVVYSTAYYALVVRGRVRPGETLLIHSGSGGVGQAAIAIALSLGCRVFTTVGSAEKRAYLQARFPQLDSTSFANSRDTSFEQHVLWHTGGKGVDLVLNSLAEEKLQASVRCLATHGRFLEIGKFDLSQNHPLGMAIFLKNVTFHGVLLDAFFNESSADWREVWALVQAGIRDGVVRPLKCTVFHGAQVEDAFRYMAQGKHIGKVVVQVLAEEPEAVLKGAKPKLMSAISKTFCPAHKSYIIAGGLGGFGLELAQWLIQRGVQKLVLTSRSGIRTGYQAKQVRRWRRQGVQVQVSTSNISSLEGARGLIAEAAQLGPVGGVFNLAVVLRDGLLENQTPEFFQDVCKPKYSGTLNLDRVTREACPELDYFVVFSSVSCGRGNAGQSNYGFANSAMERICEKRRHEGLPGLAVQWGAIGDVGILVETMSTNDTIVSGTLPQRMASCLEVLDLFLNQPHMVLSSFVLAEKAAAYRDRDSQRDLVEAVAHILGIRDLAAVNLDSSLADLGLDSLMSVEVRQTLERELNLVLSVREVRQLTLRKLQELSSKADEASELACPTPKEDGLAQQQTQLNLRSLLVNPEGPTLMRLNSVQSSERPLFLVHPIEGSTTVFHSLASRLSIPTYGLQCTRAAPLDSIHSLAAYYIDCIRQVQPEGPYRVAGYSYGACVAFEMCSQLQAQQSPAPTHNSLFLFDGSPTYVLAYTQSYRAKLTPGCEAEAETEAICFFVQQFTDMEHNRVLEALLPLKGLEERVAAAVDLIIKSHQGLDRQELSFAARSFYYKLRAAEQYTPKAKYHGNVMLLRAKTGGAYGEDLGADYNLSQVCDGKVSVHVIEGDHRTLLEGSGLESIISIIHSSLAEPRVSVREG
How it was run: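 Compounds at 0.01–30 μM were mixed with 300 ng purified full-length enzyme in 100 mM KH2PO4 pH 7.5, 1 mM DTT. Substrates ³H-acetyl-CoA and malonyl-CoA were then converted, and bead addition stopped the reaction. Signal was normalised to low and high plate controls and fitted by 4-parameter nonlinear regression.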

[2] = test system: A2780 ovarian cells; experiment: A2780 ovarian cell proliferation assay in lipid reduced medium, with palmitate (MTT); format: cell-based; details: Homo sapiens, A2780, 96 h; read-out: pIC50 A2780 Ovarian Cell, With Palmitate (converted)
How it was run: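 Seeded cells were switched next day to lipid-reduced serum, exposed to compound and 25 μM palmitate complexed with fatty-acid-free BSA, and incubated 96 h. Proliferation was then determined by MTT absorbance at 544 nm, with a best-fit curve of signal against concentration.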

[3] = test system: A2780 ovarian cells; experiment: A2780 ovarian cell proliferation assay in lipid reduced medium, without palmitate (MTT); format: cell-based; details: Homo sapiens, A2780, 96 h; read-out: pIC50 A2780 Ovarian Cell, Without Palmitate (converted)

| SMILES | inhibition at 10 µM [1] [%] | IC50 [1] [µM] | IC50 [2] [µM] | IC50 [3] [µM] |
| --- | --- | --- | --- | --- |
| CC(C)S(=O)(=O)c1cccc(-c2ccc(C3=NC4(CC4)C(=O)N3C[C@@H]3CCN(C(=O)C4CC4)C3)c(F)c2)c1 [compound 632, 6-{[(3R)-1-(Cyclopropylcarbonyl)pyrrolidin-3-yl]methyl}-5-{3-fluoro-3′-[(1-methylethyl)sulfonyl]biphenyl-4-yl}-4,6-diazaspiro[2.4]hept-4-en-7-one] | 70 | 2.75 | > 10 | ~2.4 |
| Cc1cc(-c2cccc(S(C)(=O)=O)c2)ccc1C1=NC2(CC2)C(=O)N1C[C@@H]1CCN(C(=O)C2CC2)C1 [compound 633, 6-{[(3R)-1-(Cyclopropylcarbonyl)pyrrolidin-3-yl]methyl}-5-[3-methyl-3′-(methylsulfonyl)biphenyl-4-yl]-4,6-diazaspiro[2.4]hept-4-en-7-one] | 56 | 8.32 | > 10 | 5.25 |
| CS(=O)(=O)c1cccc(-c2ccc(C3=NC4(CC4)C(=O)N3C[C@@H]3CCN(C(=O)C4CC4)C3)c(F)c2)c1 [compound 634, 6-{[(3R)-1-(Cyclopropylcarbonyl)pyrrolidin-3-yl]methyl}-5-[3-fluoro-3′-(methylsulfonyl)biphenyl-4-yl]-4,6-diazaspiro[2.4]hept-4-en-7-one] | 68 | 3.02 | > 10 | 2 |
| Cc1cc(-c2cccc(S(=O)(=O)C(C)C)c2)ccc1C1=NC2(CC2)C(=O)N1C[C@@H]1CCN(C(=O)C2CC2)C1 [compound 636, 6-{[(3R)-1-(Cyclopropylcarbonyl)pyrrolidin-3-yl]methyl}-5-{3-methyl-3′-[(1-methylethyl)sulfonyl]biphenyl-4-yl}-4,6-diazaspiro[2.4]hept-4-en-7-one] | 59 | 6.76 | > 10 | ~5.89 |
| Cc1cc(-c2cccc(S(=O)(=O)C3CC3)c2)ccc1C1=NC2(CC2)C(=O)N1CC1CN(C(=O)C2CC2)C1 [compound 640, 6-{[1-(Cyclopropylcarbonyl)azetidin-3-yl]methyl}-5-[3′-(cyclopropylsulfonyl)-3-methylbiphenyl-4-yl]-4,6-diazaspiro[2.4]hept-4-en-7-one] | 64 | 5.37 | > 10 | 8.32 |
| Cc1cc(-c2cccc(S(=O)(=O)C3CC3)c2)ccc1C1=NC2(CC2)C(=O)N1C[C@@H]1CCN(C(=O)C2CC2)C1 [compound 646, 6-{[(3R)-1-(Cyclopropylcarbonyl)pyrrolidin-3-yl]methyl}-5-[3′-(cyclopropylsulfonyl)-3-methylbiphenyl-4-yl]-4,6-diazaspiro[2.4]hept-4-en-7-one] | 88 | 1.17 | > 10 | 2.45 |
| Cn1c(-c2ccc(C3=NC4(CC4)C(=O)N3CC3CN(C(=O)C4CC4)C3)c(F)c2)nc2ccccc21 [compound 648, 6-{[1-(Cyclopropylcarbonyl)azetidin-3-yl]methyl}-5-[2-fluoro-4-(1-methyl-1H-benzimidazol-2-yl)phenyl]-4,6-diazaspiro[2.4]hept-4-en-7-one] | 74 | 2.57 | > 10 | 2.51 |
| Cc1cc(-c2cccc(SC3CC3)c2)ccc1C1=NC2(CC2)C(=O)N1CC1CN(C(=O)C2CC2)C1 [compound 650, 6-{[1-(Cyclopropylcarbonyl)azetidin-3-yl]methyl}-5-[3′-(cyclopropylsulfanyl)-3-methylbiphenyl-4-yl]-4,6-diazaspiro[2.4]hept-4-en-7-one] | 84 | 1.35 | > 10 | 4.9 |
| O=C(C1CC1)N1CC(CN2C(=O)C3(CC3)N=C2c2ccc(-c3cccc(S(=O)(=O)C4CC4)c3)cc2F)C1 [compound 651, 6-{[1-(Cyclopropylcarbonyl)azetidin-3-yl]methyl}-5-[3′-(cyclopropylsulfonyl)-3-fluorobiphenyl-4-yl]-4,6-diazaspiro[2.4]hept-4-en-7-one] | 77 | 3.09 | > 10 | 2.75 |
| Cn1c(-c2ccc(C3=NC4(CC4)C(=O)N3CC3CN(C(=O)C4CC4)C3)c(F)c2)nc2ccc(F)cc21 [compound 653, 6-{[1-(Cyclopropylcarbonyl)azetidin-3-yl]methyl}-5-[2-fluoro-4-(6-fluoro-1-methyl-1H-benzimidazol-2-yl)phenyl]-4,6-diazaspiro[2.4]hept-4-en-7-one] | 71 | 3.02 | > 10 | 4.17 |
| Cc1nc2ccc(-c3ccc(C4=NC5(CC5)C(=O)N4CC4CN(C(=O)C5CC5)C4)c(F)c3)cc2n1C [compound 654, 6-{[1-(Cyclopropylcarbonyl)azetidin-3-yl]methyl}-5-[4-(1,2-dimethyl-1H-benzimidazol-6-yl)-2-fluorophenyl]-4,6-diazaspiro[2.4]hept-4-en-7-one] | 83 | 1.15 | > 10 | 2.19 |
| COC(=O)N1CC[C@@H](CN2C(=O)C3(CCOCC3)N=C2c2ccc(-c3ccc4cccnc4c3)cc2)C1 [compound 664, Methyl (3S)-3-{[4-oxo-2-(4-quinolin-7-ylphenyl)-8-oxa-1,3-diazaspiro[4.5]dec-1-en-3-yl]methyl}pyrrolidine-1-carboxylate] | 87 | 3.72 | > 10 | ~2.88 |
| COC(=O)N1CC[C@@H](CN2C(=O)C3(CCOC3)N=C2c2ccc(-c3ccc4cccnc4c3)cc2)C1 (stereo partly drawn) [compound 683, Methyl (3S)-{[4-oxo-2-(4-quinolin-7-ylphenyl)-7-oxa-1,3-diazaspiro[4.4]non-1-en-3-yl]methyl}pyrrolidin-1-carboxylate] | 63 | 4.17 | > 10 | > 10 |
| Cc1cc(-c2cccc(S(C)(=O)=O)c2)ccc1C1=NC2(CC2)C(=O)N1CC1CN(C(=O)C2CC2)C1 [compound 775, 6-((1-(cyclopropanecarbonyl)azetidin-3-yl)methyl)-5-(3-methyl-3′-(methylsulfonyl)-[1,1′-biphenyl]-4-yl)-4,6-diazaspiro[2.4]hept-4-en-7-one] | 34 | > 10 | > 10 | > 10 |
| Cc1cc(-c2cccc(S(=O)(=O)C(C)C)c2)ccc1C1=NC2(CC2)C(=O)N1CC1CN(C(=O)C2CC2)C1 [compound 776, 6-((1-(cyclopropanecarbonyl)azetidin-3-yl)methyl)-5-(3′-(isopropylsulfonyl)-3-methyl-[1,1′-biphenyl]-4-yl)-4,6-diazaspiro[2.4]hept-4-en-7-one] | 25 | > 10 | > 10 | > 10 |
| CS(=O)(=O)c1cccc(-c2ccc(C3=NC4(CC4)C(=O)N3CC3CN(C(=O)C4CC4)C3)c(F)c2)c1 [compound 777, 6-((1-(cyclopropanecarbonyl)azetidin-3-yl)methyl)-5-(3-fluoro-3′-(methylsulfonyl)-[1,1′-biphenyl]-4-yl)-4,6-diazaspiro[2.4]hept-4-en-7-one] | 34 | > 10 | > 10 | 9.55 |
| CC(C)c1ccc(-c2ccc(C3=NC4(CC4)C(=O)N3CC3CN(C(=O)C4CC4)C3)cc2)cn1 [compound 784, 6-((1-(cyclopropanecarbonyl)azetidin-3-yl)methyl)-5-(4-(6-isopropylpyridin-3-yl)phenyl)-4,6-diazaspiro[2.4]hept-4-en-7-one] | 14 | > 10 | > 10 | 5.89 |
| Cc1cc(-c2ccc(-c3ccnn3CC(C)C)cc2)ccc1C1=NC2(CC2)C(=O)N1CC1CN(C(=O)C2(C)CC2)C1 [compound 785] | 24 | > 10 | ~6.17 | 3.89 |
| Cc1cc(-c2ccc(-c3ccnn3CC3CC3)cc2)ccc1C1=NC2(CC2)C(=O)N1CC1CN(C(=O)C2(C)CC2)C1 [compound 786, 5-(4′-(1-(cyclopropylmethyl)-1H-pyrazol-5-yl)-3-methyl-[1,1′-biphenyl]-4-yl)-6-((1-(1-methylcyclopeopanecarbonyl)azetidin-3-yl)methyl)-4,6-diazaspiro[2.4]hept-4-en-7-one] | 31 | > 10 | 5.89 | 6.76 |
| Cc1cc(-c2nc3cc(Br)ccc3cc2C)ccc1C1=NC2(CC2)C(=O)N1CC1CN(C(=O)C2(C)CC2)C1 [compound 787, 5-(4-(7-bromo-3-methylquinolin-2-yl)-2-methylphenyl)-6-((1-(1-methylcyclopropanecarbonyl)azetidin-3-yl)methyl)-4,6-diazaspiro[2.4]hept-4-en-7-one] | 38 | > 10 | > 10 | 9.33 |
| O=C(C1CC1)N1CC(CN2C(=O)C3(CC3)N=C2c2ccc(-c3ccc4c(cnn4C4COC4)c3)cc2)C1 [compound 788, 6-((1-(cyclopropanecarbonyl)azetidin-3-yl)methyl)-5-(4-(1-(oxetan-3-yl)-1H-indazol-5-yl)phenyl)-4,6-diazaspiro[2.4]hept-4-en-7-one] | 14 | > 10 | > 10 | > 10 |
